What was measured:
NCI-H460 = experiment: Cytotoxicity against human NCI-H460 after 72 hrs by sulforhodamine B assay; assay type: functional, cell-based; conditions: NCI-H460, 72 h
[1] = molecular target: Heat shock protein HSP 90-beta (Homo sapiens, UniProt P08238); experiment: Binding affinity to Hsp90 after 4 hrs by fluorescence polarization assay
Sequence of Heat shock protein HSP 90-beta (P08238 whole entry): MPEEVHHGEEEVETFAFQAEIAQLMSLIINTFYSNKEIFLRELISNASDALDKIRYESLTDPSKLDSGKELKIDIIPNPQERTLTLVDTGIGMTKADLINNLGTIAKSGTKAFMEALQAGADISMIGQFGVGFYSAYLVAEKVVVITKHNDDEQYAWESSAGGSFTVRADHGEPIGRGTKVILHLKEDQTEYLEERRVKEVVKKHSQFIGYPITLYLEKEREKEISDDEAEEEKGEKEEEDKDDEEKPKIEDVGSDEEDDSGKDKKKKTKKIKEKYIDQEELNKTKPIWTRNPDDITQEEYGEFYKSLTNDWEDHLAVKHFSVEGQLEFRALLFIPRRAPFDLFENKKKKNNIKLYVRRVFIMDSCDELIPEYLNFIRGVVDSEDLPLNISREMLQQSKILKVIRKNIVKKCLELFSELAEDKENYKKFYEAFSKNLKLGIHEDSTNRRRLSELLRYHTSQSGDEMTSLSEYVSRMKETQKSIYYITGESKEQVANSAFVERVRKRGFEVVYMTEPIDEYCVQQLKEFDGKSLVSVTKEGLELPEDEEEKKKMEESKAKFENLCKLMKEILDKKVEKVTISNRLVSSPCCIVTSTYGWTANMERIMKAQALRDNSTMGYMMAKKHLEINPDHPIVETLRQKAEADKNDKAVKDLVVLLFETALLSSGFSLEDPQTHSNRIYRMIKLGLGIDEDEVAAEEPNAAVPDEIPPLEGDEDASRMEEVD

## CCNC(=O)c1noc(-c2cc(Cl)c(O)cc2O)c1NC(=O)C12CC3CC(CC(C3)C1)C2
NCI-H460
  IC50: 750 nM
[1]
  IC50: 250 nM

## CCNC(=O)c1noc(-c2cc(C(C)C)c(O)cc2O)c1NC(=O)[C@@H]1CC[C@H](CO)C1 (relative stereo)
NCI-H460
  IC50: > 260 nM
[1]
  IC50: 12.6 nM

## CCNC(=O)c1noc(-c2cc(C(C)C)c(O)cc2O)c1NC(=O)c1ccc(OC)c(F)c1
NCI-H460
  IC50: 55 nM
[1]
  IC50: 34 nM

## CCNC(=O)c1noc(-c2cc(C(C)C)c(O)cc2O)c1NC(=O)c1cc(C(C)=O)on1
NCI-H460
  IC50: 82 nM
[1]
  IC50: 19 nM

## CCNC(=O)c1noc(-c2cc(C(C)C)c(O)cc2O)c1NC(=O)[C@H]1CC[C@@H](O)CC1
NCI-H460
  IC50: 500 nM
[1]
  IC50: < 5 nM

## CCNC(=O)c1noc(-c2cc(C(C)C)c(O)cc2O)c1NC(=O)c1oc2ccc(OC)cc2c1C
NCI-H460
  IC50: 750 nM
[1]
  IC50: 48 nM

## CCNC(=O)c1noc(-c2cc(C(C)C)c(O)cc2O)c1NC(=O)[C@H]1CC[C@H](CO)CC1
NCI-H460
  IC50: 600 nM
[1]
  IC50: < 5 nM

## CCNC(=O)c1noc(-c2cc(C(C)C)c(O)cc2O)c1NC(=O)[C@H]1CC[C@@H](CN2CCOCC2)CC1
NCI-H460
  IC50: 140 nM
[1]
  IC50: 19.6 nM

## CCNC(=O)c1noc(-c2cc(C(C)C)c(O)cc2O)c1NC(=O)C1CCC(C(F)(F)F)CC1 (stereo not drawn)
NCI-H460
  IC50: 42 nM
[1]
  IC50: 240 nM

## CCNC(=O)c1noc(-c2cc(C(C)C)c(O)cc2O)c1NC(=O)[C@H]1CC[C@H](CNS(=O)(=O)c2ccc(F)cc2)CC1
NCI-H460
  IC50: 640 nM
[1]
  IC50: 5.4 nM

## CCNC(=O)c1noc(-c2cc(Cl)c(O)cc2O)c1NC1CCCCC1
NCI-H460
  IC50: > 1000 nM
[1]
  IC50: 620 nM

## CCCCC[C@H]1CC[C@H](C(=O)Nc2c(C(=O)NCC)noc2-c2cc(C(C)C)c(O)cc2O)CC1
NCI-H460
  IC50: > 1000 nM
[1]
  IC50: 260 nM

## CCNC(=O)c1noc(-c2cc(Cl)c(O)cc2O)c1NC(=O)c1ccc(OC)cc1
NCI-H460
  IC50: > 1000 nM
[1]
  IC50: 184 nM

## CCNC(=O)c1noc(-c2cc(C(C)C)c(O)cc2O)c1NC(=O)C1CCN(C)CC1
NCI-H460
  IC50: > 1000 nM
[1]
  IC50: 24 nM

## CCNC(=O)c1noc(-c2cc(Cl)c(O)cc2O)c1NCc1sccc1C
NCI-H460
  IC50: > 1000 nM
[1]
  IC50: 230 nM

## CCNC(=O)c1noc(-c2cc(C(C)C)c(O)cc2O)c1NC(=O)CCN1CCN(C)CC1
NCI-H460
  IC50: > 1000 nM
[1]
  IC50: 120 nM

## CCNC(=O)c1noc(-c2cc(C(C)C)c(O)cc2O)c1NC(=O)C1CCC(C(C)(C)C)CC1 (stereo not drawn)
NCI-H460
  IC50: 200 nM
[1]
  IC50: 30 nM

## CCNC(=O)c1noc(-c2cc(C(C)C)c(O)cc2O)c1NC(=O)C1CC(O)C1 (stereo not drawn)
NCI-H460
  IC50: 920 nM
[1]
  IC50: 14 nM

## CCNC(=O)c1noc(-c2cc(C(C)C)c(O)cc2O)c1NC(=O)c1ccc(Br)o1
NCI-H460
  IC50: 19 nM
[1]
  IC50: 22 nM

## CCNC(=O)c1cc(C(=O)Nc2c(C(=O)NCC)noc2-c2cc(C(C)C)c(O)cc2O)on1
NCI-H460
  IC50: > 1000 nM
[1]
  IC50: 24 nM

## CCNC(=O)c1noc(-c2cc(C(C)C)c(O)cc2O)c1NC(=O)CCN1CCOCC1
NCI-H460
  IC50: 110 nM
[1]
  IC50: 214 nM

## CCNC(=O)c1noc(-c2cc(C(C)C)c(O)cc2O)c1NC(=O)[C@H]1CC[C@H](CNC)CC1
NCI-H460
  IC50: > 1000 nM
[1]
  IC50: 8.6 nM

## CCNC(=O)c1noc(-c2cc(C(C)C)c(O)cc2O)c1NC(=O)c1ccc2ccn(C)c2c1
NCI-H460
  IC50: 87 nM
[1]
  IC50: 34 nM

## CCNC(=O)c1noc(-c2cc(Cl)c(O)cc2O)c1NC(=O)C(C)(C)C
NCI-H460
  IC50: 310 nM
[1]
  IC50: 85 nM

## CCNC(=O)c1noc(-c2cc(Cl)c(O)cc2O)c1NC(=O)c1sccc1C
NCI-H460
  IC50: 410 nM
[1]
  IC50: 74 nM

## CCNC(=O)c1noc(-c2cc(C(C)C)c(O)cc2O)c1NC(=O)[C@H]1CC[C@H](N2CCOCC2)CC1
NCI-H460
  IC50: 680 nM
[1]
  IC50: < 5 nM

## CCNC(=O)c1noc(-c2cc(C(C)C)c(O)cc2O)c1NC(=O)[C@H]1CC[C@@H](N2CCOCC2)CC1
NCI-H460
  IC50: 610 nM
[1]
  IC50: 7.4 nM

## CCNC(=O)c1noc(-c2cc(C(C)C)c(O)cc2O)c1NC(=O)c1sc(-c2ccncc2)nc1C
NCI-H460
  IC50: > 1000 nM
[1]
  IC50: 27 nM

## CCNC(=O)c1noc(-c2cc(C(C)C)c(O)cc2O)c1NC(=O)c1nc(C)c(-c2ccc(F)cc2)s1
NCI-H460
  IC50: > 1000 nM
[1]
  IC50: 40 nM
